# Test results from patent US20150105252A1, “SUBSTITUTED PYRAZOLES AS HERBICIDES” (E I DU PONT DE NEMOURS AND COMPANY, priority 2013, published 2015).
# Experiments:
# crabgrass, large = assay: Test C postemergence; assay type: in vivo, Digitaria sanguinalis
# Summary of the method: (§1)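 Seeds sown in loam–sand blend and treated preemergence with test chemicals in non-phytotoxic solvent with surfactant; postemergence plants in peat-based medium, treated at 2–18 cm (1- to 4-leaf stage). Greenhouse 13 to 15 days, then visual rating versus controls, 0 (no effect) to 100 (complete control).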
# morningglory = assay: Test C postemergence; assay type: in vivo, Ipomoea coccinea
# Summary of the method: as §1
# chickweed = assay: Test C postemergence; assay type: in vivo, Stellaria media
# Summary of the method: as §1
# wheat = assay: Test C postemergence; assay type: in vivo, Triticum aestivum; settings: postemergence
# Summary of the method: as §1
# blackgrass = assay: Test C postemergence; assay type: in vivo, Alopecurus myosuroides
# Summary of the method: as §1
# corn = assay: Test C postemergence; assay type: in vivo, Zea mays
# Summary of the method: as §1
# lambsquarters = assay: Test C preemergence; assay type: in vivo, Chenopodium album; settings: preemergence
# Summary of the method: as §1
# galium = assay: Test C postemergence; assay type: in vivo, Galium aparine
# Summary of the method: as §1
# ragweed = assay: Test C postemergence; assay type: in vivo, Ambrosia elation; settings: postemergence
# Summary of the method: as §1
# waterhemp = assay: Test C postemergence; assay type: in vivo, Amaranthus rudis; settings: postemergence, 250 g ai/ha; scale 0 to 100 (0 no effect, 100 complete control)
# Summary of the method: as §1
# ryegrass, Italian = assay: Test C postemergence; assay type: in vivo, Lolium multiflorum; settings: postemergence
# Summary of the method: as §1
# soybean = assay: Test C postemergence; assay type: in vivo, Glycine max; settings: postemergence
# Summary of the method: as §1
# barnyardgrass = assay: Test C postemergence; assay type: in vivo, Echinochloa crus-galli
# Summary of the method: as §1
# foxtail, giant = assay: Test C postemergence; assay type: in vivo, Setaria faberii
# Summary of the method: as §1
# [1] = Postemergence, 31 g ai/ha, visually evaluated after 13 to 15 days
# [2] = postemergence, 62 g ai/ha, scale 0 to 100
# [3] = postemergence, 250 g ai/ha, scale 0 to 100 (0 no effect, 100 complete control)
# [4] = postemergence, 125 g ai/ha, scale 0 to 100, 0 no effect, 100 complete control
# [5] = 250 g ai/ha, scale 0 to 100 (0 no effect, 100 complete control)
# [6] = 125 g ai/ha, scale 0 to 100, 0 no effect, 100 complete control
compound,measurement,setting,value
CCOc1cc(C(=O)NC(C)C)nn1Cc1ccnc(C(F)(F)F)c1 [Compound 188],"Plant response rating (scale of 0 to 100 where 0 is no effect and 100 is complete control), Crabgrass, Large","crabgrass, large; [1]",5
same,"Crabgrass, Large plant response rating","crabgrass, large; [2]",55
same,"Plant response rating, Crabgrass, Large","crabgrass, large; [3]",95
same,"Plant response rating, Crabgrass, Large","crabgrass, large; [4]",70
same,"Plant response rating (scale of 0 to 100 where 0 is no effect and 100 is complete control), Morningglory",morningglory; [1],85
same,Morningglory plant response rating,morningglory; [2],90
same,"Plant response rating, Morningglory",morningglory; [3],98
same,"Plant response rating, Morningglory",morningglory; [4],98
same,"Plant response rating (scale of 0 to 100 where 0 is no effect and 100 is complete control), Chickweed",chickweed; [1],70
same,Chickweed plant response rating,chickweed; [2],85
same,"Plant response rating, Chickweed",chickweed; [3],98
same,"Plant response rating, Chickweed",chickweed; [4],80
same,"Plant response rating, Wheat",wheat; [5],40
same,Wheat plant response rating,wheat; scale 0 to 100,15
same,"Plant response rating (scale of 0 to 100 where 0 is no effect and 100 is complete control), Blackgrass",blackgrass; [1],5
same,Blackgrass plant response rating,blackgrass; [2],5
same,"Plant response rating, Blackgrass",blackgrass; [3],70
same,"Plant response rating, Blackgrass",blackgrass; [4],40
same,"Plant response rating (scale of 0 to 100 where 0 is no effect and 100 is complete control), Corn",corn; [1],5
same,Corn plant response rating,corn; [2],55
same,"Plant response rating, Corn",corn; [3],60
same,"Plant response rating, Corn",corn; [4],20
same,Lambsquarters plant response rating,"lambsquarters; 31 g ai/ha, visual rating, scale 0 to 100 (0 no effect, 100 complete control), 13 to 15 days",100
same,Lambsquarters plant response rating,"lambsquarters; 62 g ai/ha, scale 0 to 100 (0 no effect, 100 complete control), 13 to 15 days",100
same,"Plant response rating, Lambsquarters","lambsquarters; 125 g ai/ha, 13 to 15 days, scale 0 to 100, 0 = no effect, 100 = complete control",100
same,Lambsquarters plant response rating,"lambsquarters; 250 g ai/ha, scale 0 to 100, 0 is no effect, 100 is complete control",100
same,"Plant response rating (scale of 0 to 100 where 0 is no effect and 100 is complete control), Galium",galium; [1],80
same,Galium plant response rating,galium; [2],80
same,"Plant response rating, Galium",galium; [3],90
same,"Plant response rating, Galium",galium; [4],90
same,"Plant response rating, Ragweed",ragweed; [5],90
same,"Plant response rating, Ragweed",ragweed; [6],85
same,"Plant response rating, Waterhemp",waterhemp,95
same,"Plant response rating, Ryegrass, Italian","ryegrass, Italian; [5]",35
same,"Plant response rating, Ryegrass, Italian","ryegrass, Italian; [6]",20
same,"Plant response rating, Soybean",soybean; [5],98
same,Soybean plant response rating,soybean; [6],95
same,"Plant response rating (scale of 0 to 100 where 0 is no effect and 100 is complete control), Barnyardgrass",barnyardgrass; [1],5
same,Barnyardgrass plant response rating,barnyardgrass; [2],15
same,"Plant response rating, Barnyardgrass",barnyardgrass; [3],65
same,"Plant response rating, Barnyardgrass",barnyardgrass; [4],30
same,"Plant response rating (scale of 0 to 100 where 0 is no effect and 100 is complete control), Foxtail, Giant","foxtail, giant; [1]",5
same,"Foxtail, Giant plant response rating","foxtail, giant; [2]",40
same,"Plant response rating, Foxtail, Giant","foxtail, giant; [3]",90
same,"Plant response rating, Foxtail, Giant","foxtail, giant; [4]",60
